Experimental data reported in patent US11932636B2, “RAD51 inhibitors” (Cyteir Therapeutics, Inc., priority 2019, dated 2024).

system: Daudi cells (AID positive); assay: Compound primary screening: cell death in AID positive Daudi cells (Cell-Titer Glo, Day 7); type: cell-based; conditions: Homo sapiens, 168 h; Daudi cells, AID positive; cell death on Day 7, Cell-Titer Glo; read-out: Cellular activity in AID + (Daudi)
In short: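 AID-positive Daudi cells were seeded at 1250 cells per well and treated with serially diluted compound delivered from a DMSO/media master plate. Cultures were incubated at 37 °C, and cell death was measured on Day 7 with Cell-Titer Glo luminescence.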

SMILES	EC50
CCNS(=O)(=O)c1cc(CO)ccc1-c1cnc([C@H]2CC[C@H](NC(=O)OC(C)C)CC2)s1 [Compound 72, isopropyl trans-N-[4-[5-[2-(ethylsulfamoyl)-4-(hydroxymethyl)phenyl]thiazol-2-yl]cyclohexyl]carbamate]	1000 to 10000 nM
CCNS(=O)(=O)c1cc(CNc2ncc[nH]2)ccc1-c1cnc([C@H]2CC[C@H](NC(=O)OC(C)C)CC2)s1 [Compound 73, isopropyl trans-N-[4-[5-[2-(ethylsulfamoyl)-4-[(1H-imidazol-2-ylamino)methyl]phenyl]thiazol-2-yl]cyclohexyl]carbamate]	1000 to 10000 nM
CCNS(=O)(=O)c1cc(CNc2ncco2)ccc1-c1cnc([C@H]2CC[C@H](NC(=O)OC(C)C)CC2)s1 [Compound 74, isopropyl trans-N-[4-[5-[2-(ethylsulfamoyl)-4-[(oxazol-2-ylamino)methyl]phenyl]thiazol-2-yl]cyclohexyl]carbamate]	100 to 1000 nM
CCNS(=O)(=O)c1cc(-c2ncc[nH]2)ccc1-c1cnc([C@H]2CC[C@H](NC(=O)OC(C)C)CC2)s1 [Compound 75, isopropyl trans-N-[4-[5-[2-(ethylsulfamoyl)-4-(1H-imidazol-2-yl)phenyl]thiazol-2-yl]cyclohexyl]carbamate]	1000 to 10000 nM
CCNS(=O)(=O)c1cc(CC(=O)OC)ccc1-c1cnc([C@H]2CC[C@H](NC(=O)OC(C)C)CC2)s1 [Compound 76, methyl trans-2-[3-(ethylsulfamoyl)-4-[2-[4-(isopropoxycarbonylamino)cyclohexyl]thiazol-5-yl]phenyl]acetate]	1000 to 10000 nM
CCNS(=O)(=O)c1cc(CC(=O)O)ccc1-c1cnc([C@H]2CC[C@H](NC(=O)OC(C)C)CC2)s1 [Compound 77, trans-2-[3-(ethylsulfamoyl)-4-[2-[4-(isopropoxycarbonyl-amino)cyclohexyl]thiazol-5-yl]phenyl]acetic Acid]	1000 to 10000 nM
CCNS(=O)(=O)c1cc(Cc2ncc[nH]2)ccc1-c1cnc([C@H]2CC[C@H](NC(=O)OC(C)C)CC2)s1 [Compound 78, isopropyl trans-N-[4-[5-[2-(ethylsulfamoyl)-4-(1H-imidazol-2-ylmethyl)phenyl]thiazol-2-yl]cyclohexyl]carbamate]	1000 to 10000 nM
CCNS(=O)(=O)c1cc(CC(=O)NCc2ccccc2)ccc1-c1cnc([C@H]2CC[C@H](NC(=O)OC(C)C)CC2)s1 [Compound 79, isopropyl trans-N-[4-[5-[4-[2-(benzylamino)-2-oxo-ethyl]-2-(ethyl-sulfamoyl)phenyl]thiazol-2-yl]cyclohexyl]carbamate]	< 100 nM
CCNS(=O)(=O)c1cc(CC(=O)N(C)C(C)C)ccc1-c1cnc([C@H]2CC[C@H](NC(=O)OC(C)C)CC2)s1 [Compound 80, isopropyl trans-N-[4-[5-[4-[2-(isopropyl(methyl)amino)-2-oxo-ethyl]-2-(ethyl-sulfamoyl)phenyl]thiazol-2-yl]cyclohexyl]carbamate]	100 to 1000 nM
CCNS(=O)(=O)c1cc(CC(=O)N(C)Cc2ccccc2)ccc1-c1cnc([C@H]2CC[C@H](NC(=O)OC(C)C)CC2)s1 [Compound 81, isopropyl trans-N-[4-[5-[4-[2-(benzyl(methyl)amino)-2-oxo-ethyl]-2-(ethyl-sulfamoyl)phenyl]thiazol-2-yl]cyclohexyl]carbamate]	100 to 1000 nM
CCNS(=O)(=O)c1cc(CC(=O)N2CCCC2)ccc1-c1cnc([C@H]2CC[C@H](NC(=O)OC(C)C)CC2)s1 [Compound 82, isopropyl trans-N-[4-[5-[4-[2-oxo-2-(pyrrolidin-1-yl)ethyl]-2-(ethyl-sulfamoyl)phenyl]thiazol-2-yl]cyclohexyl]carbamate]	100 to 1000 nM
CCNS(=O)(=O)c1cc(CC(=O)N2CCCCC2)ccc1-c1cnc([C@H]2CC[C@H](NC(=O)OC(C)C)CC2)s1 [Compound 83, isopropyl trans-N-[4-[5-[4-[2-oxo-2-(piperidin-1-yl)ethyl]-2-(ethyl-sulfamoyl)phenyl]thiazol-2-yl]cyclohexyl]carbamate]	100 to 1000 nM
CCNS(=O)(=O)c1cc(CC(=O)N2CCOCC2)ccc1-c1cnc([C@H]2CC[C@H](NC(=O)OC(C)C)CC2)s1 [Compound 84, isopropyl trans-N-[4-[5-[4-[2-oxo-2-(morpholin-4-yl)ethyl]-2-(ethyl-sulfamoyl)phenyl]thiazol-2-yl]cyclohexyl]carbamate]	100 to 1000 nM
CCNS(=O)(=O)c1cc(CC(=O)N2CC(O)C2)ccc1-c1cnc([C@H]2CC[C@H](NC(=O)OC(C)C)CC2)s1 [Compound 85, isopropyl trans-N-[4-[5-[4-[2-oxo-2-(3-hydroxyazetidin-1-yl)ethyl]-2-(ethyl-sulfamoyl)phenyl]thiazol-2-yl]cyclohexyl]carbamate]	100 to 1000 nM
CCNS(=O)(=O)c1cc(CC(N)=O)ccc1-c1cnc([C@H]2CC[C@H](NC(=O)OC(C)C)CC2)s1 [Compound 86, isopropyl trans-N-[4-[5-[4-[2-amino-2-oxo-ethyl]-2-(ethyl-sulfamoyl)phenyl]thiazol-2-yl]cyclohexyl]carbamate]	100 to 1000 nM
CCNS(=O)(=O)c1cc(CC(=O)N2CCC2)ccc1-c1cnc([C@H]2CC[C@H](NC(=O)OC(C)C)CC2)s1 [Compound 87, isopropyl trans-N-[4-[5-[4-[2-oxo-2-(azetidin-1-yl)ethyl]-2-(ethyl-sulfamoyl)phenyl]thiazol-2-yl]cyclohexyl]carbamate]	100 to 1000 nM
CC(C)OC(=O)N[C@H]1CC[C@H](c2ncc(-c3ccc(N)cc3S(=O)(=O)N3CCCC3)s2)CC1 [Compound 88, isopropyl trans-N-[4-[5-(4-amino-2-pyrrolidin-1-ylsulfonyl-phenyl)thiazol-2-yl]cyclohexyl]carbamate]	100 to 1000 nM
CNc1ccc(-c2cnc([C@H]3CC[C@H](NC(=O)OC(C)C)CC3)s2)c(S(=O)(=O)N2CCCC2)c1 [Compound 89, isopropyl trans-N-[4-[5-(4-(methylamino)-2-pyrrolidin-1-ylsulfonyl-phenyl)thiazol-2-yl]cyclohexyl]carbamate]	100 to 1000 nM
CC(C)OC(=O)N[C@H]1CC[C@H](c2ncc(-c3ccc(Nc4ncc[nH]4)cc3S(N)(=O)=O)s2)CC1 [Compound 90, isopropyl trans-N-[4-[5-[4-(1H-imidazol-2-ylamino)-2-sulfamoyl-phenyl]thiazol-2-yl]cyclohexyl]carbamate]	100 to 1000 nM
CC(C)OC(=O)N[C@H]1CC[C@H](c2ncc(-c3ccc(Nc4ncc[nH]4)cc3S(=O)(=O)N(C)C)s2)CC1 [Compound 91, isopropyl trans-N-[4-[5-[2-(dimethylsulfamoyl)-4-(1H-imidazol-2-ylamino)phenyl]thiazol-2-yl]cyclohexyl]carbamate]	100 to 1000 nM
CC(C)OC(=O)N[C@H]1CC[C@H](c2ncc(-c3ccc(Nc4ncc[nH]4)cc3S(=O)(=O)N3CCCC3)s2)CC1 [Compound 92, isopropyl trans-N-[4-[5-[4-(1H-imidazol-2-ylamino)-2-pyrrolidin-1-ylsulfonyl-phenyl]thiazol-2-yl]cyclohexyl]carbamate]	100 to 1000 nM
CNS(=O)(=O)c1ccccc1-c1cnc([C@H]2CC[C@H](NC(=O)OC(C)C)CC2)s1 [Compound 93, isopropyl trans-N-[4-[5-(2-methylsulfamoylphenyl)thiazol-2-yl]cyclohexyl]carbamate]	1000 to 10000 nM
